This is an account of results in US20250277001A1, “PEPTIDE DERIVATIVES AND RELATED USES AS OREXIN AGONISTS” (CENTESSA PHARMACEUTICALS (UK) LIMITED, priority 2022, published 2025).

One assay relates to individuals with NT1. Conditions: initial clinical studies; cited from earlier work.
A further assay has as its system mice. Conditions: cited from earlier work.
The target in assay [1] is T1, human orexin type 1 receptor (hOX1R) (Homo sapiens, UniProt O43613).
T1 construct: expressed in transfected cells
T1 sequence (O43613 1-425): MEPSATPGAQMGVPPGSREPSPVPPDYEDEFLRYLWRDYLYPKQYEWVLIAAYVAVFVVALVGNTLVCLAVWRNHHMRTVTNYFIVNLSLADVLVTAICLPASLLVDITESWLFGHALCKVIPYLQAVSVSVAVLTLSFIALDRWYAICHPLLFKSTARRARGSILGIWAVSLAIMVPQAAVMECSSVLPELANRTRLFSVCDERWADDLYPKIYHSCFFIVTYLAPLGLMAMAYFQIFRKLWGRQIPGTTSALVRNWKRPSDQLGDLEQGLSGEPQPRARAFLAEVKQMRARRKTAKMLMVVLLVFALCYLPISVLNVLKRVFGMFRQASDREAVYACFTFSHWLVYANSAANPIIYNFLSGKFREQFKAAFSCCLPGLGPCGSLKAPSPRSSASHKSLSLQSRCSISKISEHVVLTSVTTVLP
As to the kind of experiment: Measurement of orexin type 1 receptor agonist activity (CHO cells, FLIPR TETRA intracellular Ca2+). Type of assay: cell-based. The text has this:
(§1) In some embodiments, the assay uses cells stably expressing either human orexin type 2 or human orexin type 1 receptor. In some embodiments, the cells are obtained by inserting the Orexin receptor cDNA into pcDNA3.1(+) plasmid vector, identifying clones by G418 drug resistance selection, and/or growing a single clone for OX2R-CHO and OX1R-CHO in bulk. In some embodiments, the assay is detected using Fluorescent Imaging Plate Reader TETRA (FLIPR TETRA: manufactured by Molecular Devices). In some embodiments, the agonist activity of the test peptide is calculated assuming that the fluorescence value of the well containing only the dilution buffer is 0% and the fluorescence value of the well containing 10 nM human orexin A (Tocris) buffer is 100%.
(§2) Stable cell line generation. Obtainment of cells stably expressing either human orexin type 2 or human orexin type 1 receptor: to obtain a stable cell line the Orexin receptor cDNA was inserted into pcDNA3.1(+) plasmid vector and clones identified by G418 drug resistance selection. […] A single clone for OX2R-CHO and OX1R-CHO were grown in bulk and frozen to generate a cell bank for routine screening.
(§3) Measurement of orexin type 1 receptor agonist activity. Chinese hamster ovary (CHO) cells expressing human orexin type 1 receptor (hOX1R) were seeded in each well of 384 well black clear bottom plates (BD Flacon) at 10,000 cells per well and cultured for 24 h in an Ham's F12 (Gibco) medium containing 10% fetal calf serum (Sigma Aldrich) under the conditions of 37° C., 5% CO2. After removal of the medium, 50 μL of assay buffer 1 (0.1% bovine serum albumin (Sigma Aldrich), 20 mM HEPES (Molecular Dimensions), […] probenecid (Sigma Aldrich), 1× Calcium 5 dye (Molecular Devices) in Hank's balanced salt solution (Invitrogen)) was added, and the cells were incubated for 60 min under the conditions of 37° C., 5% CO2. A test peptide was dissolved in dimethyl sulfoxide (Sigma Aldrich) to 1 mM, and then diluted with assay buffer 2 (20 mM HEPES, Hank's balanced salt solution, 0.1% bovine serum albumin). For the reaction, a test peptide solution (10 μl) was added using Fluorescent Imaging Plate Reader TETRA (FLIPR TETRA: manufactured by Molecular Devices), a fluorescence value (excitation wavelength 488 nm, measurement wavelength 570 nm) of each well was measured every one second for 2 min, and the agonist activity was determined using the area of the fluorescence value as an indicator of intracellular Ca^2+ concentration. The agonist activity of the test peptide was calculated assuming that the fluorescence value of the well added with only the dilution buffer was 0% and the fluorescence value of the well added with 10 nM human orexin A (Tocris) buffer was 100%. As used herein, Emax indicates the value at 1 μM concentration when orexin A is converted to a full agonist (maximum value of agonist activity: 100%).

In assay [2] the target is T2, human orexin type 2 receptor (hOX2R) (Homo sapiens, UniProt O43614).
T2 construct: expressed in transfected cells
T2 sequence (O43614 1-444): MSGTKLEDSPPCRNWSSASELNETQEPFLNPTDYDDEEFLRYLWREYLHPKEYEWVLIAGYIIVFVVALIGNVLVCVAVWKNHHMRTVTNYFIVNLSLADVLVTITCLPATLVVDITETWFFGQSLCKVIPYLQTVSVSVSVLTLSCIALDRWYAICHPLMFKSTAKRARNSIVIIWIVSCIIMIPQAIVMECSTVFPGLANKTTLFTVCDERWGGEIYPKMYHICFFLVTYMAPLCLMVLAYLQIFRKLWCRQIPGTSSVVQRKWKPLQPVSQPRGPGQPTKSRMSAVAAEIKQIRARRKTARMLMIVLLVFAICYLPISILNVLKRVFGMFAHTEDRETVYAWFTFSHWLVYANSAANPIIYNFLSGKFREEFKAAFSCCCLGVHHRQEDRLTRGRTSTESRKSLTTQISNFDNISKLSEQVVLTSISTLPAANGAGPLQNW
Briefly: Measurement of orexin type 2 receptor agonist activity (CHO cells, FLIPR TETRA intracellular Ca2+). Type of assay: cell-based.
Description: as §1, §2
as §3, with “type 2” for “type 1”, “receptor (hOX2R)” for “receptor (hOX1R) were”

[3] abbreviates: intracerebroventricular (ICV), orexin-neuron ablated mice.

Like-named read-outs stand apart in the source and are kept apart here. Where a SMILES comes first, the peptide text is derived from it. Where no end group is shown, it is not given here. [ ]: non-standard residue; d: D form. The star is where a group is joined. Malonyl(2,2-Me2,histaminyl) = CC(C)(C(=O)NCCc1cnc[nH]1)C(=O)*; d(hArg) = N=C(N)NCCCC[C@@H](N)C(=O)O; Gly(NCH2CH2Ph) = O=C(O)CNCCc1ccccc1; Hyp = O=C(O)[C@@H]1C[C@@H](O)CN1; hArg = N=C(N)NCCCC[C@H](N)C(=O)O; NMeN = CN[C@@H](CC(N)=O)C(=O)O; Aoc(2) = CCCCCC[C@H](N)C(=O)O; Phg = N[C@H](C(=O)O)c1ccccc1

With `COC(=O)N1CCC[C@H](NS(C)(=O)=O)[C@@H]1CO[C@H]1CC[C@@H](c2ccccc2)CC1` [TAK-925], in the assay with individuals with NT1, the cataplexy result was “trends for decreasing cataplexy”. Also, the wakefulness entry with individuals with NT1 was “substantial levels of increased wakefulness”; in the assay with mice (subcutaneous, OX2R-knockout mice) it was “not”; in the assay with mice (subcutaneous, WT mice) it was “modestly increased”.
As for `COc1ccc(-c2cccc(C(=O)N(C)C)c2)cc1S(=O)(=O)Nc1cccc(NCCNC(=O)c2ccccc2N(C)C)c1` [YNT-185], the “sleep-onset REM periods and cataplexy-like events” value in the assay on mice (NT1 mouse model) is “decreases”. For the same compound, the wakefulness entry with mice (intraperitoneally or ICV, wild type (WT) and orexin ligand-deficient mice) is “modestly increases”.
For `CCCCCC[C@H](NC(=O)[C@@H](NC(=O)[C@H](CC(C)C)NC(=O)[C@@H](NC(=O)CNC(=O)[C@@H](NC(=O)[C@H](C)NC(=O)[C@@H]1C[C@@H](O)CN1C(=O)[C@H](CC(N)=O)N(C)C(=O)CN(CCc1ccccc1)C(=O)[C@H](CCCNC(=N)N)NC(=O)[C@H](CCCNC(=N)N)NC(=O)[C@@H]1C[C@@H](O)CN1C(=O)[C@@H]1C[C@@H](O)CN1C(=O)[C@@H]1C[C@@H](O)CN1)c1ccccc1)[C@@H](C)CC)[C@@H](C)O)C(N)=O` [compound 16] (H-[Hyp][Hyp][Hyp]RR[Gly(NCH2CH2Ph)][NMeN][Hyp]A[Phg]GILT[Aoc(2)]-NH2), the EC50 in assay [1] (CHO cells expressing hOX1R, Ca2+ fluorescence, read-out: hOX1 pEC50 (converted)) is above 10 nM; in assay [2] (CHO cells expressing hOX2R, Ca2+ fluorescence, read-out: hOX2 pEC50 (converted)), below 0.1 nM.
On to `CCCCCC[C@H](NC(=O)[C@@H](NC(=O)[C@H](CC(C)C)NC(=O)[C@@H](NC(=O)CNC(=O)[C@@H](NC(=O)[C@H](C)NC(=O)[C@@H]1C[C@@H](O)CN1C(=O)[C@H](CC(N)=O)N(C)C(=O)CN(CCc1ccccc1)C(=O)[C@H](CCCNC(=N)N)NC(=O)[C@H](CCCNC(=N)N)NC(=O)[C@@H]1CCCN1C(=O)[C@H](CCCCNC(=N)N)NC(=O)[C@H](CCC(N)=O)NC(=O)C(C)(C)C(=O)NCCc1cnc[nH]1)c1ccccc1)[C@@H](C)CC)[C@@H](C)O)C(N)=O` [compound 17] ({Malonyl(2,2-Me2,histaminyl)}-Q[hArg]PRR[Gly(NCH2CH2Ph)][NMeN][Hyp]A[Phg]GILT[Aoc(2)]-NH2), for which the EC50 in assay [1] was above 10 nM; in assay [2], below 0.1 nM.
In the case of `CCCCCC[C@H](NC(=O)[C@@H](NC(=O)[C@H](CC(C)C)NC(=O)[C@@H](NC(=O)CNC(=O)[C@@H](NC(=O)[C@H](C)NC(=O)[C@@H]1C[C@@H](O)CN1C(=O)[C@H](CC(N)=O)N(C)C(=O)CN(CCc1ccccc1)C(=O)[C@H](CCCNC(=N)N)NC(=O)[C@H](CCCNC(=N)N)NC(=O)[C@H]1CCCN1C(=O)[C@@H](CCCCNC(=N)N)NC(=O)[C@@H](CCC(N)=O)NC(=O)C(C)(C)C(=O)NCCc1cnc[nH]1)c1ccccc1)[C@@H](C)CC)[C@@H](C)O)C(N)=O` [compound 18] ({Malonyl(2,2-Me2,histaminyl)}-[dQ][d(hArg)][dP]RR[Gly(NCH2CH2Ph)][NMeN][Hyp]A[Phg]GILT[Aoc(2)]-NH2), the figures for the EC50 in assay [1] and in assay [2] were above 10 nM and below 0.1 nM, respectively.
With `CCCCCC[C@H](NC(=O)[C@@H](NC(=O)[C@H](CC(C)C)NC(=O)[C@@H](NC(=O)CNC(=O)[C@@H](NC(=O)[C@H](C)NC(=O)[C@@H]1C[C@@H](O)CN1C(=O)[C@H](CC(N)=O)N(C)C(=O)CN(CCc1ccccc1)C(=O)[C@H](CCCNC(=N)N)NC(=O)[C@H](CCCNC(=N)N)NC(=O)[C@@H]1CCCN1C(=O)[C@H](CCCCNC(=N)N)NC(=O)[C@@H](CCC(N)=O)NC(=O)C(C)(C)C(=O)NCCc1cnc[nH]1)c1ccccc1)[C@@H](C)CC)[C@@H](C)O)C(N)=O` [compound 19] ({Malonyl(2,2-Me2,histaminyl)}-[dQ][hArg]PRR[Gly(NCH2CH2Ph)][NMeN][Hyp]A[Phg]GILT[Aoc(2)]-NH2), the EC50 in assay [1] is above 10 nM; in assay [2], below 0.1 nM.
Taken in the same sequence, the figures for `CCCCCC[C@H](NC(=O)[C@@H](NC(=O)[C@H](CC(C)C)NC(=O)[C@@H](NC(=O)CNC(=O)[C@@H](NC(=O)[C@H](C)NC(=O)[C@@H]1C[C@@H](O)CN1C(=O)[C@H](CC(N)=O)NC(=O)CN(CCc1ccccc1)C(=O)[C@H](CCCNC(=N)N)NC(=O)[C@H](CCCNC(=N)N)NC(=O)[C@@H]1CCCN1C(=O)[C@H](CCCCNC(=N)N)NC(=O)[C@@H](CCC(N)=O)NC(=O)C(C)(C)C(=O)NCCc1cnc[nH]1)c1ccccc1)[C@@H](C)CC)[C@@H](C)O)C(N)=O` [compound 20] ({Malonyl(2,2-Me2,histaminyl)}-[dQ][hArg]PRR[Gly(NCH2CH2Ph)]N[Hyp]A[Phg]GILT[Aoc(2)]-NH2) were 1 to 10 nM and below 0.1 nM.
For the compound “orexin A (QPLPDCCRQKTCSCRLYELLHGAGNHAAGILTL; ends and bridges not checked; cysteine pairing not given here; UniProt O43612 34-66, looked up) [orexin neuropeptide, also known as hypocretin-1]”, in the assay on mice (setting [3]), the cataplexy-like behavior result is reported as “decreases” and the time spent awake entry is “increase”.
